# Experimental data taken from PMC4122966, “Novel VCP modulators mitigate major pathologies of rd10, a mouse model of retinitis pigmentosa” (Scientific Reports, 2014).
# Assays:
# rd10 mice = experiment: rd10 mouse model of retinitis pigmentosa (SD-OCT, electroretinogram, histology, electron microscopy, western blot); type: in vivo; details: 21-day-old, 50 mg/kg daily i.p. from day 7, vs control
# Protocol: Starting 7 days after birth, KUS121 or KUS187 was administered daily (50 mg/kg) by intraperitoneal injection. […] To test the visual function of the mice, dark-adapted electroretinograms were recorded. The amplitude of the a-wave, which represents visual function of photoreceptors, was smaller in the control mice than in the KUS-treated mice (Supplementary Fig. 5b and c). The peak latency of the a-wave, which negatively correlates with visual function of photoreceptors, was delayed in the control mice as compared with the KUS-treated mice (Supplementary Fig. 5d). At age 25 days, the thinning of the outer nuclear layer (ONL) was clearly observed in the control mice (Fig. 5a). The outer nuclear layer and the junction line between the inner segment and outer segment (arrow heads in Fig. 5a), which is generally considered to be positively associated with visual function, were clearly detected in the KUS-treated but not in control mice. […] At age 29 days, the photoreceptor layer was barely detected in SD-OCT images, and electroretinogram records were almost flat in control mice. […]
# Spectral-domain optical coherence tomography (SD-OCT) examinations using Multiline OCT (Heidelberg Engineering, Heidelberg, Germany) were performed[33] in rd10 mice at ages of 21, 25, 29, and 33days. Total retinal thickness (from inner limiting membrane to Bruch membrane) in rd10 mice was measured using volume scan images[33] within a circle 0.366 mm in diameter, the center of which was adjusted to the center of the optic nerve head. […]
# Electroretinogram recording was performed to assess the visual function of rd10 mice at ages of 21, 25, 29, and 33 days. […] Electroretinograms were recorded using a gold loop corneal electrode with a light-emitting diode (Mayo Corp., Inazawa, Japan). […] The electroretinogram response signals were amplified, digitized at 10 kHz with a band-pass filter of 0.3 to 500 Hz, and analyzed (PowerLab 2/25; AD instruments, New South Wales, Australia). […]
# [1] = test system: essentially all tested cultured cells; experiment: cellular toxicity on cultured cells; type: cell-based; details: up to 50 μM
# [2] = test system: whole cell soluble lysate of neuronally differentiated PC12 cells; experiment: total ATPase activity in clarified whole cell lysates; type: biochemical
# Protocol: Figure 3 Effects of KUSs on ATPase activities, ATP levels, and acetyl-CoA levels. (a) Inhibition of ATPase activity in clarified whole cell lysates by KUS121, KUS187, and KUS94, but not KUS11. Total ATPase activities in clarified whole cell lysates from differentiated PC12 cells were measured in the absence and presence of KUSs. Relative ATPase activities are shown with values in the absence of KUS (D: DMSO) set at 100%. (b) HeLa cells were cultured in medium with low glucose (0.25 g/l) for 20 hours, with or without KUSs, and ATP levels were measured with luciferase assays. (c) HeLa cells were cultured in medium with low glucose (0.25 g/l) for 20 hours, with or without KUSs, and acetyl-CoA levels were measured. * P < 0.05, ** P < 0.01, *** P < 0.001 vs. DMSO control (Dunnett's test, n = 3).
# We measured ATPase activities by modifying the molybdate assay, which was as described previously. In the assay, 1 μg of whole cell soluble lysate of neuronally differentiated PC12 cells, or 500 ng recombinant VCP protein, was incubated in 20 μl of the ATPase assay buffer (20 mM HEPES (pH 7.4), 50 mM KCl, 5 mM MgCl2) with 100 μM [γ-^32P]ATP (18.5 GBq/mmol) (PerkinElmer) at 37°C for 20 min. After incubation, the reaction was quenched by addition of 200 μl of 8% ice-cold trichloroacetic acid solution with 1 mM K2HPO4, and then 50 μl of solution A (3.75% ammonium molybdate, 0.02 M silicotungstic acid in 3 N H2SO4) and 300 μl of n-butyl acetate were added to the reaction. The samples were mixed well and centrifuged at 12,000 × g for 1 min. Then, 200 μl aliquots from the upper organic phases were taken and their radioactivity was determined with a liquid scintillation counter for β-radiation, which determined the amounts of ^32P released.
smiles,measurement,setting,value
Cc1cc(F)ccc1-c1ccc(/N=N/c2cc(S(=O)(=O)O)c3ccccc3c2N)cn1 [KUS121],"mean amplitude of the a-wave, dark-adapted electroretinogram",rd10 mice,larger than that in control rd10 mice
same,apparent cellular toxicity,[1],did not manifest any apparent cellular toxicity
same,lowering of total ATPase activity,[2]; 100 nM compound,approximately 20%
same,lowering of total ATPase activity,[2]; 1 μM compound,~40%
